According to US6365617B1, “Indole and indazole urea-peptoids as thrombin receptor antagonists” (Ortho-McNeil Pharmaceutical, Inc., priority 1999, dated 2002):
Where two headings read alike, the source gives them in different places.

Key:
[1] = test system: gel-filtered platelets (thrombin-induced aggregation); assay: In vitro inhibition of thrombin-induced gel-filtered platelet aggregation assay; format: cell-based; conditions: platelet aggregation stimulated by thrombin, gel-filtered human platelets, read-out: GFP Aggr. IC50
Procedure: In Vitro Inhibition Of Thrombin-induced Gel-filtered Platelet Aggregation Assay
The percentage of platelet aggregation is calculated as an increase in light transmission of compound-treated platelet concentrate vs. control-treated platelet concentrate. Human blood is obtained from drug free, normal donors in tubes containing 0.13M sodium citrate. Platelet rich plasma (PRP) is collected by centrifugation of whole blood at 200×g for 10 min at 25° C. The PRP (5 mL) is gel filtered through Sepharose 2B (bed volume 50 mL), and the platelet count is adjusted to 2×10^7 platelets per sample. The following constituents are added to a siliconized cuvette: concentrated platelet filtrate and Tyrode's buffer (0.14M NaCl, 0.0027M KCl, 0.012M NaHCO3, 0.76 mM Na2HPO4, 0.0055M glucose, 2 mg/mL BSA and 5.0 mM HEPES @ pH 7.4) in an amount equal to 350 μL, 50 μL of 20 mM calcium and 50 μL of the test compound. Aggregation is monitored in a BIODATA aggregometer for the 3 min following the addition of agonist (thrombin 50 μL of 1 unit/mL).

[2] = molecular target: T1, thrombin receptor (PAR-1) (Homo sapiens, UniProt P25116); assay: In vitro thrombin receptor binding assay (CHRF membranes, tritiated 721-40)
T1 construct: CHRF membranes (Jones, Biochim. Biophys. Acta 1992, 1136, 272) are thawed from −70° C; endogenous in cells; host or cells: CHRF cell membranes
T1 sequence (P25116 22-425): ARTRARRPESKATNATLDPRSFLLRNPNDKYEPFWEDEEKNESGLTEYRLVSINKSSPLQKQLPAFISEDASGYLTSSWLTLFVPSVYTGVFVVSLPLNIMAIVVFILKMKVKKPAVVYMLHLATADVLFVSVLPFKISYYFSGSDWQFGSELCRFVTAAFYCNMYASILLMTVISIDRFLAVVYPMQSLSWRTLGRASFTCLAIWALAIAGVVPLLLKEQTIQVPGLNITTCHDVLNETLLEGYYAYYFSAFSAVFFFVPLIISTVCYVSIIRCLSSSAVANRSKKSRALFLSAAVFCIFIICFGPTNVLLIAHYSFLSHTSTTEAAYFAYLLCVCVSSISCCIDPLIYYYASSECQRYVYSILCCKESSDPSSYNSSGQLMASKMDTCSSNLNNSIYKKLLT
Procedure: In Vitro Thrombin Receptor Binding Assay
CHRF membranes (Jones, Biochim. Biophys. Acta 1992, 1136, 272) are thawed from −70° C., centrifuged at maximum speed for 5 min, washed twice with binding buffer (50 mM HEPES containing 5 mM MgCl2 and 0.1% BSA), and re-suspended in binding buffer ([…]). 100 μL of membranes are added to the 24-Wallac plates and delivered to the Tomtech apparatus. In a typical experiment, 6 μL of samples (from a 125 μg/mL intermediary plate, 20% DMSO) and 44 μL buffer are delivered to the plates (final conc. of compounds is 3.7 μg/mL, 0.6% DMSO). Similarly, 6 μL 20% DMSO and 44 μL buffer are delivered to both column 1 (NSB) and column 12 (TB). 10 μL Ser-pFPhe-Har-Leu-Har-Lys-Tyr-NH2 (721-40; 500 μM in deionized water) is added to column 1. 50 μL tritiated 721-40 (specific activity 46 Ci/mmol) is added to all the wells. The plates are mixed well for 20 seconds, incubated for 30 min, and then harvested with 10 mM HEPES/138 mM NaCl using the Skatron harvester. The filters (GF/C Brandel FPXLR 296) are presoaked 3 h in 0.5% polyethylenimine in HEPES/0.1M N-acetylglucosamine) are set in saran wrap and dried for 3 min in the microwave, and placed in sample bags (Wallac 1450-432). 4.5 mL scintillation fluid (Wallac, Betaplate Scint 1205-440) is added. The bags are sealed, placed in filter cassettes (Wallac 1450-104), and analyzed on the microbeta counter.

[3] = Table 1, read-out: Recptr Bdg. IC50
[4] = Table 2, read-out: Recptr Bdg. IC50

NCCN(CC(=O)NCc1ccccc1)C(=O)[C@H](Cc1ccc(F)c(F)c1)NC(=O)Nc1ccc2c(CN3CCCC3)nn(Cc3c(Cl)cccc3Cl)c2c1 [Compound 1]
IC50 ([1]; Table 1): 1300 nM
IC50 [2, 3]: 500 nM

NCCN(CC(=O)NCc1ccccc1)C(=O)[C@H](Cc1ccc(F)c(F)c1)NC(=O)Nc1ccc2c(CN3CCCC3)cn(Cc3c(Cl)cccc3Cl)c2c1 [Compound 2]
IC50 ([1]; Table 1): 1700 nM
IC50 [2, 3]: 300 nM

NCCCCN(CC(=O)NCc1ccccc1)C(=O)[C@H](Cc1ccc(F)c(F)c1)NC(=O)Nc1ccc2c(CN3CCCC3)nn(Cc3c(Cl)cccc3Cl)c2c1 [Compound 3]
IC50 ([1]; Table 1): 260 nM
IC50 [2, 3]: 300 nM

NCCCCN(CC(=O)NCc1ccccc1)C(=O)[C@H](Cc1ccc(F)c(F)c1)NC(=O)Nc1ccc2c(CN3CCCC3)cn(Cc3c(Cl)cccc3Cl)c2c1 [Compound 4]
IC50 ([1]; Table 1): 260 nM
IC50 [2, 3]: 220 nM

O=C(CN(Cc1ccccc1)C(=O)[C@H](Cc1ccc(F)c(F)c1)NC(=O)Nc1ccc2c(CN3CCCC3)cn(Cc3c(Cl)cccc3Cl)c2c1)NCc1ccccc1 [Compound 5]
IC50 ([1]; Table 1): 22000 nM
IC50 [2, 3]: 380 nM

NCCCN(Cc1cccs1)C(=O)[C@H](Cc1ccc(F)c(F)c1)NC(=O)Nc1ccc2c(CN3CCCC3)cn(Cc3c(Cl)cccc3Cl)c2c1 [Compound 6, Benzene Propanamide, N-(3-aminopropyl)-N-(2-thiophenemethyl)-α-[[[[[1-(2,6-dichlorophenyl)methyl]-3-(1-pyrrolidinylmethyl)-1H-indol-6-yl]amino]carbonyl]amino]-3,4-difluoro-, (αS)-]
IC50 ([1]; Table 1): 600 nM
IC50 [2, 3]: 10300 nM

N=C(N)NCCC[C@H](NC(=O)CN(CCCCCN)C(=O)Nc1ccc2c(CN3CCCC3)cn(Cc3c(Cl)cccc3Cl)c2c1)C(=O)NCc1ccccc1 [Compound 13]
IC50 ([1]; Table 2): 1000 nM
IC50 [2, 4]: > 100000 nM

N=C(N)NCCC[C@H](NC(=O)CN(Cc1ccc(Cl)cc1)C(=O)Nc1ccc2c(CN3CCCC3)cn(Cc3c(Cl)cccc3Cl)c2c1)C(=O)NCc1ccccc1 [Compound 14]
IC50 ([1]; Table 2): 6300 nM
IC50 [2, 4]: 6900 nM

N=C(N)NCCC[C@H](NC(=O)CN(Cc1ccc(F)cc1)C(=O)Nc1ccc2c(CN3CCCC3)cn(Cc3c(Cl)cccc3Cl)c2c1)C(=O)NCc1ccccc1 [Compound 15, N-4-Fluorophenylmethyl-N-{[1-(2,6-dichlorophenyl)methyl-3-(1-pyrrolidinylmethyl)-1H-indol-6-yl]aminocarbonyl}-clycinyl-L-arginin-N-benzyl-amide]
IC50 ([1]; Table 2): 2100 nM
IC50 [2, 4]: 8100 nM
